# Source: US10781188B2, “Contrast agents” (BRACCO IMAGING S.P.A., priority 2015, dated 2020)
# Assay: Relaxivity r1p in human plasma, 37° C.
# Assay type: physicochemical
# Conditions: 0.47 T (20 MHz)
# Experimental: (§1) The relaxometric properties of some representative complex compounds according to the invention have been determined at different magnetic field strengths, e.g. including 0.47 and 1.41 T, at 37° C. and in different media (physiologic solution and human plasma) and compared with relaxivity values measured, at the same conditions, for some Gd-Complex of the market having an analogous cyclic coordination cage.
# (§2) The longitudinal water proton relaxation rate (R1=1/T1) was measured at 0.47 T with a Minispec MQ-20 spectrometer (Bruker Biospin, Germany) operating at a proton Larmor frequency of 20 MHz; MR experiments at 1.41 T were performed using a Minispec MQ-60 spectrometer (Bruker Biospin, Germany) operating at a proton Larmor frequency of 60 MHz.
# (§3) All test articles were used as supplied and diluted in the selected medium (physiologic solution or human plasma) by weighting the required amount of paramagnetic chelated complex to get a 5 or 10 mM starting solution.
# (§4) Five different concentration samples (0.1, 0.25, 0.5, 0.75 and 1 mM) for each medium have been prepared by further dilution of the starting 5 or 10 mM solution.
# (§5) Relaxivity measurements were performed at 0.47 T and 1.41 T at a preset temperature sample of 37° C., kept constant by means of a thermostatic bath connected to the sample holder of the spectrometer. The five sample solutions have been preliminary pre-heated at 37° C. in an external thermostatic bath and then left 10 minutes inside the internal bath to assure the stabilization of the temperature. Longitudinal relaxation time T1 was measured by means of a standard inversion recovery sequence, where the inversion time (TI) was varied from 10 ms to at least 5 times T1 in 15 steps. Statistical analysis (mono-exponential fitting for T1 measurement, linear fitting for the evaluation of longitudinal relaxivity) was performed by Mathematica® (Wolfram, USA). Errors on the estimated parameters were evaluated by the fitting procedure.
row,Structure (SMILES),"r1p at 0.47 T 37° C., human plasma"
1,CCOP(=O)(O)CN(Cc1ccccc1)CC(O)CN1CCN(CC(=O)O)CCN(CC(=O)O)CCN(CC(=O)O)CC1 (centres unmarked) [Chelate Complex 8],10.2 mM⁻¹ s⁻¹
2,O=C([O-])CN1CCN(CC(=O)O)CCN(CC(=O)O)CCN(CC(O)CNC(CCc2ccccc2)P(=O)(O)[O+]=[Na])CC1 (centres unmarked) [Chelate Complex 6],13.8 mM⁻¹ s⁻¹
3,O=C(O)CN1CCN(CC(=O)O)CCN(CC(O)CNCP(=O)(O)O)CCN(CC(=O)O)CC1 (centres unmarked) [Chelate Complex 2],8.5 mM⁻¹ s⁻¹
4,O=C(O)CN1CCN(CC(=O)O)CCN(CC(O)CN(CCOCCO)CCOCCO)CCN(CC(=O)O)CC1 (centres unmarked) [Chelate Complex 14],8.8 mM⁻¹ s⁻¹
5,O=C(O)CN1CCN(CC(=O)O)CCN(CC(O)CN2CC(CO)(CO)C(O)C(CO)(CO)C2)CCN(CC(=O)O)CC1 (centres unmarked) [Chelate Complex 5],9.6 mM⁻¹ s⁻¹
6,O=C(O)CN1CCN(CC(=O)O)CCN(CC(O)CN(CC(=O)O)C(CO)CO)CCN(CC(=O)O)CC1 (centres unmarked) [Chelate Complex 13],7.5 mM⁻¹ s⁻¹
7,"NCC(O)CN1CCN(CC(=O)O)CCN(CC(=O)O)CCN(CC(=O)O)CC1 (centres unmarked) [Comparative 1, reference compound]",6.25 mM⁻¹ s⁻¹
8,"O=C(O)CN1CCN(CC(=O)O)CCN(CC(=O)O)CCN(CC(=O)O)CC1 [Doratem ®, Gd-DOTA, reference compound]",4.5 mM⁻¹ s⁻¹
9,"CC(O)CN1CCN(CC(=O)O)CCN(CC(=O)O)CCN(CC(=O)O)CC1 (centres unmarked) [ProHance ®, Gd-HPDO3A, reference compound]",4.9 mM⁻¹ s⁻¹
10,CN(CC(O)CN1CCN(CC(=O)O)CCN(CC(=O)O)CCN(CC(=O)O)CC1)CC(O)C(O)C(O)C(O)CO (centres unmarked) [Chelate Complex 21],8.5 mM⁻¹ s⁻¹
11,O=C(O)CN1CCN(CC(=O)O)CCN(CC(O)CN(CC(=O)O)C2CCCCC2)CCN(CC(=O)O)CC1 (centres unmarked) [Chelate Complex 19],9.1 mM⁻¹ s⁻¹

# Same assay, conditions: 1.41 T (60 MHz)
row,Structure (SMILES),"r1p at 1.41 T 37° C., human plasma"
1,CCOP(=O)(O)CN(Cc1ccccc1)CC(O)CN1CCN(CC(=O)O)CCN(CC(=O)O)CCN(CC(=O)O)CC1 (centres unmarked) [Chelate Complex 8],9.0 mM⁻¹ s⁻¹
2,O=C([O-])CN1CCN(CC(=O)O)CCN(CC(=O)O)CCN(CC(O)CNC(CCc2ccccc2)P(=O)(O)[O+]=[Na])CC1 (centres unmarked) [Chelate Complex 6],11.9 mM⁻¹ s⁻¹
3,O=C(O)CN1CCN(CC(=O)O)CCN(CC(O)CNCP(=O)(O)O)CCN(CC(=O)O)CC1 (centres unmarked) [Chelate Complex 2],7.5 mM⁻¹ s⁻¹
4,O=C(O)CN1CCN(CC(=O)O)CCN(CC(O)CN(CCOCCO)CCOCCO)CCN(CC(=O)O)CC1 (centres unmarked) [Chelate Complex 14],8.0 mM⁻¹ s⁻¹
5,O=C(O)CN1CCN(CC(=O)O)CCN(CC(O)CN2CC(CO)(CO)C(O)C(CO)(CO)C2)CCN(CC(=O)O)CC1 (centres unmarked) [Chelate Complex 5],8.9 mM⁻¹ s⁻¹
6,O=C(O)CN1CCN(CC(=O)O)CCN(CC(O)CN(CC(=O)O)C(CO)CO)CCN(CC(=O)O)CC1 (centres unmarked) [Chelate Complex 13],7.1 mM⁻¹ s⁻¹
7,"NCC(O)CN1CCN(CC(=O)O)CCN(CC(=O)O)CCN(CC(=O)O)CC1 (centres unmarked) [Comparative 1, reference compound]",5.3 mM⁻¹ s⁻¹
8,"O=C(O)CN1CCN(CC(=O)O)CCN(CC(=O)O)CCN(CC(=O)O)CC1 [Doratem ®, Gd-DOTA, reference compound]",3.6 mM⁻¹ s⁻¹
9,"CC(O)CN1CCN(CC(=O)O)CCN(CC(=O)O)CCN(CC(=O)O)CC1 (centres unmarked) [ProHance ®, Gd-HPDO3A, reference compound]",4.15 mM⁻¹ s⁻¹
10,CN(CC(O)CN1CCN(CC(=O)O)CCN(CC(=O)O)CCN(CC(=O)O)CC1)CC(O)C(O)C(O)C(O)CO (centres unmarked) [Chelate Complex 21],8.3 mM⁻¹ s⁻¹
11,O=C(O)CN1CCN(CC(=O)O)CCN(CC(O)CN(CC(=O)O)C2CCCCC2)CCN(CC(=O)O)CC1 (centres unmarked) [Chelate Complex 19],8.05 mM⁻¹ s⁻¹

# Assay: Relaxivity r1p in physiologic solution (saline), 37° C.
# Assay type: physicochemical
# Conditions: 0.47 T (20 MHz)
# Experimental: as §1, §2, §3, §4, §5
row,Structure (SMILES),"r1p at 0.47 T 37° C., saline"
1,CCOP(=O)(O)CN(Cc1ccccc1)CC(O)CN1CCN(CC(=O)O)CCN(CC(=O)O)CCN(CC(=O)O)CC1 (centres unmarked) [Chelate Complex 8],7.4 mM⁻¹ s⁻¹
2,O=C([O-])CN1CCN(CC(=O)O)CCN(CC(=O)O)CCN(CC(O)CNC(CCc2ccccc2)P(=O)(O)[O+]=[Na])CC1 (centres unmarked) [Chelate Complex 6],8.3 mM⁻¹ s⁻¹
3,O=C(O)CN1CCN(CC(=O)O)CCN(CC(O)CNCP(=O)(O)O)CCN(CC(=O)O)CC1 (centres unmarked) [Chelate Complex 2],7.0 mM⁻¹ s⁻¹
4,O=C(O)CN1CCN(CC(=O)O)CCN(CC(O)CN(CCOCCO)CCOCCO)CCN(CC(=O)O)CC1 (centres unmarked) [Chelate Complex 14],6.9 mM⁻¹ s⁻¹
5,O=C(O)CN1CCN(CC(=O)O)CCN(CC(O)CN2CC(CO)(CO)C(O)C(CO)(CO)C2)CCN(CC(=O)O)CC1 (centres unmarked) [Chelate Complex 5],7.7 mM⁻¹ s⁻¹
6,O=C(O)CN1CCN(CC(=O)O)CCN(CC(O)CN(CC(=O)O)C(CO)CO)CCN(CC(=O)O)CC1 (centres unmarked) [Chelate Complex 13],5.8 mM⁻¹ s⁻¹
7,"NCC(O)CN1CCN(CC(=O)O)CCN(CC(=O)O)CCN(CC(=O)O)CC1 (centres unmarked) [Comparative 1, reference compound]",4.3 mM⁻¹ s⁻¹
8,"O=C(O)CN1CCN(CC(=O)O)CCN(CC(=O)O)CCN(CC(=O)O)CC1 [Doratem ®, Gd-DOTA, reference compound]",3.6 mM⁻¹ s⁻¹
9,"CC(O)CN1CCN(CC(=O)O)CCN(CC(=O)O)CCN(CC(=O)O)CC1 (centres unmarked) [ProHance ®, Gd-HPDO3A, reference compound]",3.5 mM⁻¹ s⁻¹
10,CN(CC(O)CN1CCN(CC(=O)O)CCN(CC(=O)O)CCN(CC(=O)O)CC1)CC(O)C(O)C(O)C(O)CO (centres unmarked) [Chelate Complex 21],6.1 mM⁻¹ s⁻¹
11,O=C(O)CN1CCN(CC(=O)O)CCN(CC(O)CN(CC(=O)O)C2CCCCC2)CCN(CC(=O)O)CC1 (centres unmarked) [Chelate Complex 19],6.5 mM⁻¹ s⁻¹

# Same assay, conditions: 1.41 T (60 MHz)
row,Structure (SMILES),"r1p at 1.41 T 37° C., saline"
1,CCOP(=O)(O)CN(Cc1ccccc1)CC(O)CN1CCN(CC(=O)O)CCN(CC(=O)O)CCN(CC(=O)O)CC1 (centres unmarked) [Chelate Complex 8],7.3 mM⁻¹ s⁻¹
2,O=C([O-])CN1CCN(CC(=O)O)CCN(CC(=O)O)CCN(CC(O)CNC(CCc2ccccc2)P(=O)(O)[O+]=[Na])CC1 (centres unmarked) [Chelate Complex 6],8.2 mM⁻¹ s⁻¹
3,O=C(O)CN1CCN(CC(=O)O)CCN(CC(O)CNCP(=O)(O)O)CCN(CC(=O)O)CC1 (centres unmarked) [Chelate Complex 2],6.5 mM⁻¹ s⁻¹
4,O=C(O)CN1CCN(CC(=O)O)CCN(CC(O)CN(CCOCCO)CCOCCO)CCN(CC(=O)O)CC1 (centres unmarked) [Chelate Complex 14],6.5 mM⁻¹ s⁻¹
5,O=C(O)CN1CCN(CC(=O)O)CCN(CC(O)CN2CC(CO)(CO)C(O)C(CO)(CO)C2)CCN(CC(=O)O)CC1 (centres unmarked) [Chelate Complex 5],7.7 mM⁻¹ s⁻¹
6,O=C(O)CN1CCN(CC(=O)O)CCN(CC(O)CN(CC(=O)O)C(CO)CO)CCN(CC(=O)O)CC1 (centres unmarked) [Chelate Complex 13],5.9 mM⁻¹ s⁻¹
7,"NCC(O)CN1CCN(CC(=O)O)CCN(CC(=O)O)CCN(CC(=O)O)CC1 (centres unmarked) [Comparative 1, reference compound]",3.8 mM⁻¹ s⁻¹
8,"O=C(O)CN1CCN(CC(=O)O)CCN(CC(=O)O)CCN(CC(=O)O)CC1 [Doratem ®, Gd-DOTA, reference compound]",3.2 mM⁻¹ s⁻¹
9,"CC(O)CN1CCN(CC(=O)O)CCN(CC(=O)O)CCN(CC(=O)O)CC1 (centres unmarked) [ProHance ®, Gd-HPDO3A, reference compound]",3.1 mM⁻¹ s⁻¹
10,CN(CC(O)CN1CCN(CC(=O)O)CCN(CC(=O)O)CCN(CC(=O)O)CC1)CC(O)C(O)C(O)C(O)CO (centres unmarked) [Chelate Complex 21],6.1 mM⁻¹ s⁻¹
11,O=C(O)CN1CCN(CC(=O)O)CCN(CC(O)CN(CC(=O)O)C2CCCCC2)CCN(CC(=O)O)CC1 (centres unmarked) [Chelate Complex 19],6.1 mM⁻¹ s⁻¹
